Test results: ChEMBL document CHEMBL1156695, “The novel primaquine derivatives of N-alkyl, cycloalkyl or aryl urea: synthesis, cytostatic and antiviral activity evaluations” (Eur J Med Chem, 2008)
Active and inactive are the calls of the source. The calls are words filed in the database; no cut-off is given here.

Tested on: Vaccinia virus
Experiment: Antiviral activity against vaccinia virus infected in HEL cells assessed as reduction of virus-induced cytopathogenicity
Type: functional, organism-based
Conditions: Orthopoxvirus vaccinia

Compound | Activity
COc1cc(NC(C)CCCNC(=O)N(C2CCCCC2)C2CCCCC2)c2ncccc2c1 (stereo not given) | inactive
CCN(CC)C(=O)NCCCC(C)Nc1cc(OC)cc2cccnc12 (stereo not given) | inactive
COc1cc(NC(C)CCCNC(=O)NCCc2ccccc2)c2ncccc2c1 (stereo not given) | inactive
COc1cc(NC(C)CCCNC(=O)NC2CCCC2)c2ncccc2c1 (stereo not given) | inactive
COc1cc(NC(C)CCCNC(=O)n2nnc3ccccc32)c2ncccc2c1 (stereo not given) [PRIMAQUINE BENZOTRIAZOLIDE] | inactive
COc1cc(NC(C)CCCNC(=O)NCc2ccncc2)c2ncccc2c1 (stereo not given) | inactive
COc1cc(NC(C)CCCNC(=O)NC(c2ccccc2)c2ccccc2)c2ncccc2c1 (stereo not given) | inactive
COc1cc(NC(C)CCCNC(=O)NCc2ccccc2)c2ncccc2c1 (stereo not given) | inactive
COc1cc(NC(C)CCCNC(=O)NCC2CCCCC2)c2ncccc2c1 (stereo not given) | inactive
COc1cc(NC(C)CCCNC(=O)NC2CCCCC2)c2ncccc2c1 (stereo not given) | inactive
